From article PMC11475408, “All‐Inorganic Polyoxometalates Act as Superchaotropic Membrane Carriers” (Advanced Materials (Deerfield Beach, Fla.), 2023)

Key:
[1] = CF transport assay in EYPC⊃CF vesicles (carrier activity); assay type: biochemical; set-up: key to Carrier activity: ‐ – ‐: No detectable activity at pH 5.5 and 7.4
Description: The capability of POMs to act as membrane carriers was explored first in large unilamellar vesicles (LUVs) loaded with carboxyfluorescein (CF).^[ [54], [55] ^] We selected […] representative cationic peptides, heptaarginine (heptaArg), heptalysine (heptaLys), protamine, and polyarginine (polyArg), as test cargos. Inside the LUVs, the CF dye was encapsulated at self‐quenching concentrations. With a suitable carrier, heptaArg can be taken up into the vesicles, bind with entrapped CF, and shuttle back to the exterior, diluting the previously quenched CF, and thereby restoring its fluorescence (Figure 1c). In the time‐resolved fluorescence experiments (Figure 2a), to test whether a particular POM acts as molecular carrier, the CF emission was continuously monitored during the addition of the inorganic carrier (t = 60 s) and after injection of the impermeable selected cargo (t = 120 s). Toward the end of the experiment (t = 600 s), the surfactant Triton X‐100 was added to release all the entrapped CF and allow normalization of the intensity data.
A thin lipid film was prepared by evaporating a lipid solution of EYPC (egg yolk phosphatidylcholine, 25 mg) in CHCl3 (1 mL) with a stream of nitrogen and then dried in vacuo overnight. The dry film was rehydrated with 1 mL buffer (50 mM CF, 10 mM Hepes, pH 7.4 or 50 mM CF, 10 mM Tris, pH 7.4) for 30 min at room temperature, subjected to freeze–thaw cycles (7 times) and extrusions (15 times) through a polycarbonate membrane (pore size 100 nm). Extravesicular components were removed by size exclusion chromatography (NAP‐25 column Sephadex G‐25 DNA grade) with 10 mM Hepes, 107 mM NaCl, pH 7.4, or 10 mM Hepes, 107 mM NaCl, pH 7.4. Phospholipid concentration was calculated by the Stewart assay.^[ [81] ^]
Acidic vesicles were prepared analogously but the rehydration and elution buffer were 50 mM CF, 10 mM Mes, pH 5.5 and 10 mM Mes, 107 mM NaCl, pH 5.5. respectively.
Vesicles stock solutions (5–10 µL) were diluted with the corresponding buffer in a disposable plastic cuvette and gently stirred (total volume 2000 µL, final lipid concentration 13 µM). Carboxyfluorescein fluorescence was monitored at λ em = 517 nm (λ ex = 492 nm) as a function of time after addition of POMs at 60 s, analyte at 120 s and Triton X‐100 (24 µL 1.2% wt/vol) at 600 s to lyse the vesicles, for calibration. Fluorescence intensities were normalized to fractional emission as (1) It=It−I0/I∞−I0 where I 0 = I t before POM addition and […] after lysis. For Hill analysis, I t before lysis was defined as transport activity, Y, and plotted against POM concentration, c, and fitted to the Hill Equation (2), to afford the activity in absence of POM, Y 0, the maximal activity, Y max, the concentration needed to achieve 50% of maximal activity, EC 50, and the Hill coefficient, n (2) Y=Y0+Ymax−Y0/1+EC50/c^n
In the transport measurements, where different carriers (POMs) are tested with the same cargo, the activator efficiency (E) is determined by their capacity to transport the impermeable cargo to the intravesicular region and is characterized by Y max, its maximal activity, and EC 50, the effective activator concentration. An ideal carrier reaches high Y max at low EC 50. To count both factors, the activator efficiency is defined as (3) E=YmaxpEC50/f were pEC 50 is the negative logarithm of the EC 50, and f a scaling factor, which was set to 20.6 to calibrate the highest (previously known) activation efficiency, E, as 10.^[ [55] ^]

[2] = Hydrolysis/stability of POMs in buffer by NMR
Method: First, their long‐term (24 h and longer) fate in aqueous solution (slightly acidic and neutral) was investigated by applying the active NMR nuclei in their composition (Table S9 and Figures S24–S37, see the Supporting Information for details).
NMR-spectroscopic characterization of identity and stability
NMR spectroscopy for all POMs tested was performed under experimental conditions.

protamine = experiment: Supramolecular tandem assay of protamine hydrolysis (CX4/LCG); assay type: biochemical; settings: time scale of transport experiments (10 min); 0.5 µM protamine, LCG/CX4 reporter, 10 mM Hepes pH 7.5; POM 0-500 µM
Method: 5. Hydrolytic activity of [(PZrW11)2]8−
We devised a supramolecular tandem enzyme assay[25-29] to check to which degree [(PZrW11)2]8− promotes peptide fragmentation, which has been reported to occur on a time scale of days at 60 °C.[30-31] Supramolecular tandem assay is a technique that allows real-time continuous monitoring of enzymatic activity by following a change in the concentration of a substrate or product as it competitively displaces a fluorescent reporter dye from the cavity of a macrocyclic host.
The assay therefore relies on the differential binding of the macrocycle with the fluorescent dye, the enzymatic substrate, and the corresponding product.
We selected p-sulfonatocalix[4]arene (CX4) as macrocyclic host and lucigenin (LCG) as fluorescent dye, since protamine […]
conversion can be directly monitored through a decrease in fluorescence. Trypsin, which is an endopeptidase that hydrolyzes peptide bonds on the C -terminal side of the amino acid arginine ,[32-33] was used as an example, for comparison.
Only minor hydrolysis (<10%) of protamine by the [(PZrW11)2]8− was observed on the time scale relevant for the transport […]

[3] = 3 mM POM, 10 mM Hepes pH 7.5, 31P NMR integration

(Et2NH2)8[{α‐P^VW^VI 11O39Zr^IV(µ‐OH)(H2O)}2]·7H2O [[(PZrW11)2]^8‒]
Carrier activity ([1]; EYPC vesicles, pH 5.5 and 7.4, cargos heptaArg, protamine, polyArg ([AlMo6]: heptaArg and protamine only)): ‐ – ‐ ^k)
Transport activity (in words) ([1]; EYPC⊃CF vesicles, neutral pH, carrier then cargo): neither transport activity nor membrane disruption was observed
% parent anion, Hepes pH 7.5 after 1 day [2, 3]: 99%
% parent anion, Hepes pH 7.5 freshly prepared [2, 3]: 99%
Hydrolysis/stability pH 7.5 ([2]; 10 mM Hepes or Tris, 107 mM NaCl, pH 7.4, NMR, long-term (24 h and longer)): Stable
Stability at pH 7.5 by NMR (in words) ([2]; Hepes or Tris-HCl pH 7.5, 27Al, 31P or 183W NMR, fresh and aged 1-3 days): remain unchanged
Hydrolysis of protamine by the POM (protamine): < 10%
